Test results from US20220105058A1, “USE OF 3-O-SULFAMATE-16,16-DIMETHYL-D-HOMOEQUILENIN TO TREAT ONCOLOGICAL DISEASES” (priority 2018, published 2022).
Marks after values point to notes of the source that are not given here.

Key:
[1] = system: MCF-7 human cells culture (breast adenocarcinoma); assay: proliferation of passaged MCF-7 cell culture; assay type: cell-based
Procedure: The study analysis was carried out on an passaged MCF-7 human cells culture culture (breast adenocarcinoma). Normal human dermal fibroblasts (HDF) of early passages were used as a negative control. The cells were cultivated in Carrel vials in DMEM/F12 medium (Biolot) with 1.0% of antibiotic-free fetal bovine embryonic serum (Biolot) added in the 5% CO2 atmosphere, at 37° C.
The cells were seeded on Carrel vials at 50×10^4 cells per flask. To study the proliferative activity of the cells under conditions of sulfatase inhibition, 24 hours after seeding the culture medium […], and then these tumor cell lines were incubated for various periods of time (24 to 72 hrs). The inhibitor was dissolved in DMSO. […] To exclude the cytotoxic effect of DMSO, a control sample comprising DMSO without sulfatase inhibitor was prepared. To exclude nonspecific detrimental effects of the compounds, normal human skin fibroblasts were used. Then the cells were detached with the versene-trypsin solution (Biolot), plated onto Carrel vials containing a fresh complete culture medium. The cells were counted when untreated control cells reached the maximum cell density per unit of surface area of a culture flask (monolayer), and their number was set as 100%. The proliferative activity of all of the studied cell cultures exposed to sulfatase inhibitors was determined in triplicate.

[2] = system: Breast tumors (BT) in female FBV/N mice transgenic for HER-2/neu; assay: antitumor activity in mice with HER-2/neu breast tumors; assay type: in vivo, FVB mice transgenic for HER-2/neu; conditions: Tamoxifen 4 mg/kg
Text: The age of animals at the beginning of the study was 21-41 weeks and weight was 25-30 g.
The control groups were given the olive oil (placebo).
TGI=(Vctrl−Vexp)/Vctrl×100(%),

[3] = body weight and tolerability during the antitumor study; conditions: for average body weight of mice (M): Tamoxifen 4.0 mg/kg i.g. daily; for Body weight: Tamoxifen 4 mg/kg
Procedure: The study medicament was administered i.g. using a metal atraumatic gavage (with the procedure corresponds to the oral route of administration in clinical settings). The medicament was administered in a single daily dose (20 mg/kg of body weight) and 5-fold daily dose of 100 mg/kg of body weight. Ex tempore solutions of the medicament for administration were prepared in olive oil (refined olive oil supplemented with unrefined extra virgin olive oil available under Global Village “Clasico” trademark, lot L:183351116, expiry date 26 Apr. 2020, BAIEO, Spain). The administered volume was 0.1 ml per 10 g of a mouse body weight (0.2 ml of a ready-to-use formulation for a mouse of 20 g). The medicament administration was started 24 hours after the randomization. The duration of the administration course was 27-28 days.
This dose corresponds to a human daily dose of 20 mg/kg.
The evaluation criteria included the clinical observation data, animals body weights, time of death (if applicable), tumor growth over time, pathomorphological examination data (verification of a neoplasm during autopsy, assessment of toxic effects by macroscopic presentation of changes in the internal organs).
The animals body weights were recorded before the first administration of the medicaments and then twice per week using a verified high-speed electronic laboratory balance Ohaus Scout Pro (USA) with a maximum load of 2000 g and a measurement step of 0.1 g.

[4] = system: uterine body without horns; assay: uterine body weight (hormonal effect) on Day 28; assay type: in vivo, FVB mice transgenic for HER-2/neu; conditions: Tamoxifen 4 mg/kg, Day 28
Procedure: To estimate the hormonal effect of the medicament, the weight of uterine body without horns was measured on Day 28 of the observation period (Table 9).

With `CC/C(=C(\c1ccccc1)c1ccc(OCCN(C)C)cc1)c1ccccc1` [Tamoxifen] the “proliferation of tumor MCF-7 cells” value [1] was “inhibited to the same extent”, the “Average volume of new tumors at the end of observation period (M)” value [2] was 0.20 cm^3 and the “average total volume of tumors, % changes from baseline” value ([2]; 28 days) was 338%. For the same molecule, the “average volume of tumors, % changes from baseline” value ([2]; 28 days) was 338%, the “TGI (average total tumor volume)” value ([2]; Day 0) was 44% and the “TGI (average tumor volume)” value ([2]; Day 0) was 24%. For the same molecule, the “average total volume of tumors in mice (M)” value (“average total volume … (M)” for short) ([2]; Day 0) was 1.26 cm^3, the “average volume of tumors (M)” value ([2]; Day 0) was 0.29 cm^3 and the “TGI (average total tumor volume)” value ([2]; Day 7) was 33%. The “TGI (average tumor volume)” value ([2]; Day 7) was 8%, the “average total volume … (M)” value ([2]; Day 7) was 2.01 cm^3 and the “average volume of tumors (M)” value ([2]; Day 7) was 0.46 cm^3. For the same molecule, the “TGI (average total tumor volume)” value ([2]; Day 14) was 32%, the “TGI (average tumor volume)” value ([2]; Day 14) was 7% and the “average total volume … (M)” value ([2]; Day 14) was 2.84 cm^3. For the same molecule, the “average volume of tumors (M)” value ([2]; Day 14) was 0.65 cm^3, the “TGI (average total tumor volume)” value ([2]; Day 21) was 36% and the “TGI (average tumor volume)” value ([2]; Day 21) was 12%. The “average total volume … (M)” value ([2]; Day 21) was 3.23 cm^3, the “average volume of tumors (M)” value ([2]; Day 21) was 0.75 cm^3 and the “TGI (average total tumor volume)” value ([2]; Day 28) was 5%. For the same molecule, the “TGI (average tumor volume)” value ([2]; Day 28) was −31%, the “average total volume … (M)” value ([2]; Day 28) was 5.52 cm^3 and the “average volume of tumors (M)” value ([2]; Day 28) was 1.27* cm^3. The “Total number of new tumors” value ([2]; end of experiment) was 32, the “frequency of tumor stabilizations” value ([2]; end of observation) was 3% and the “average body weight of mice (M)” value ([3]; Day 0) was 31.0 g. The “average body weight of mice (M)” value ([3]; Day 7) was 32.0 g, the “average body weight of mice (M)” value ([3]; Day 14) was 32.9 g and the “average body weight of mice (M)” value ([3]; Day 21) was 32.8 g. The “average body weight of mice (M)” value ([3]; Day 28) was 34.2 g, the Body weight ([3]; Day 28, All mice) was 34.2 ± 1.4 g and the Body weight ([3]; Day 28, estrus (E-9)) was 34.2 ± 1.4 g. The Uterine body weight ([4]; All mice) was 28 ± 1 mg and the Uterine body weight ([4]; estrus (E-9)) was 28 ± 1 mg.
